Assay results published in patent US20240285773A1, “METHODS OF TREATING MYELODYSPLASTIC SYNDROME AND MONITORING THE TREATMENT” (Geron Corporation, priority 2023, published 2024).
“And” between values parts separate entries of the source, which are not always exact repeats. Equal values may be shown once. [nps] = N3'→P5' thiophosphoramidate linkage; {Palm} = palmitoyl lipid

What was measured:
Type in all cases: in vivo, human
[1] = tested on: TET2; test: Gene mutation analysis (NGS): TET2 VAF and clinical response; details: imetelstat group
Excerpt: (§1) VAF for the target genes can be determined and/or measured using any convenient methods. In one such method, whole blood collected in an EDTA tube is used to perform Next Generation Sequencing (NGS), for example, using LeukoVantage®. NGS using any other sequencing platform can be used, for example, nanopore sequencing, paired-end sequencing, Ion Torrent sequencing, and single molecule real time (SMRT) sequencing. An MDS gene panel can be used. For example, a gene panel containing one or more of SF3B1, TET2, DNMT3A and ASXL1 can be used. […] The percentage of mutation reads will be reported and can be used to assess the size of the clonal population. VAF is the percentage of sequence reads observed matching a specific DNA variant divided by the overall coverage at that locus. […]
(§2) VAF changes were assessed from blood taken pre- and every 12 weeks post-treatment in patients with greater than or equal to 5% variant allele at baseline and >1 post-baseline assessment. T-tests evaluated group comparison, Fisher's exact test evaluated association, and linear regression evaluated correlation. […]
(§3) Blood samples were collected at baseline and during study visits approximately every 12 weeks. […] The lower limit of sensitivity is 5% mutated alleles in a mixed population; the percentage of mutation reads is reported and used to assess the size of the clonal population.

[2] = tested on: RBC transfusion-dependent patients with IPSS low or intermediate-1 risk MDS; test: Phase 3 trial: hematologic improvement-erythroid (HI-E) and hemoglobin
Excerpt: The primary end point was rate of RBC-TI for 8 consecutive weeks or longer. Key secondary end points included rate of 24-week TI, duration of TI, and the rate of hematologic response (hematologic improvement-erythroid [HI-E], based on modified International Working Group [IWG] 2006 criteria, and HI-E per revised IWG 2018). Additional secondary end points included relative change in number of RBC transfusions received by patients, relative change in hemoglobin, and safety. The changes in mutational status and in patient-reported fatigue over time (assessed by the Functional Assessment of Chronic Illness Therapy [FACIT] Fatigue Scale) were exploratory end points. Subgroup analyses were performed including baseline presence or absence of RS, prior RBC transfusion burden (≥4 to ≤6 or >6 RBC units/8-weeks during a 16-week period prior to randomization), and low or intermediate-1 IPSS risk categories. Subgroup analyses were also performed, including baseline mutation status as well as telomerase activity (TA), telomere lengths (TL), and human telomerase reverse transcriptase (hTERT) levels. Peripheral blood hematology, bone marrow evaluation, mutation assessment, and cytogenetic evaluation were performed centrally and responses assessed by an independent review committee (IRC). Rate of 1-year RBC-TI was reported as a post hoc analysis.
Key Secondary End Point Rate of hematologic improvement, including HI-E: per modified IWG 2006.
Changes over time in transfusion units and hemoglobin levels were compared by a mixed model for repeated measures with weeks since randomization, prior transfusion burden, minimum hemoglobin in the 8 weeks prior to first dose (for hemoglobin), and treatment arm as the independent variables with autoregressive moving average covariance structure.

[3] = tested on: patients with LR-MDS; test: Patient-reported fatigue (FACIT Fatigue Scale); details: PRO population
Excerpt: To measure patient-reported fatigue, data were collected using the validated Functional Assessment of Chronic Illness Therapy (FACIT) Scale and analyzed in all randomized patients with available fatigue data at baseline (PRO population). The FACIT is a 13-item questionnaire measuring fatigue during daily activity. Proportion of sustained, meaningful deterioration/improvement was defined as percentage of pts with ≥3-point decrease/increase on the FACIT Fatigue Scale (0-52) for ≥2 consecutive treatment cycles. Additionally, time-to-deterioration/improvement was estimated by Kaplan-Meier analysis. Sensitivity analyses were performed in the intent-to-treat population and with alternate definitions of meaningful deterioration.
Exploratory End Point Patient-Reported Fatigue: Proportion of sustained meaningful deterioration/improvement was defined as percentage of patients with ≥3-point decrease/increase on the Functional Assessment of Chronic Illness Therapy (FACIT) Fatigue Scale (0-52) for ≥2 consecutive treatment cycles.
Meaningful improvement in FACIT Fatigue: Psychometric supportive evidence for the use of the FACIT Fatigue in the context of LR-MDS confirms the previously published threshold of a 3-point change for meaningful within-patient change for the FACIT Fatigue.

[4] = tested on: SF3B1; test: Gene mutation analysis (NGS): SF3B1 VAF and clinical response
Excerpt: VAF for the target genes can be determined and/or measured using any convenient methods. In one such method, whole blood collected in an EDTA tube is used to perform Next Generation Sequencing (NGS), for example, using LeukoVantage®. NGS using any other sequencing platform can be used, for example, nanopore sequencing, paired-end sequencing, Ion Torrent sequencing, and single molecule real time (SMRT) sequencing. An MDS gene panel can be used. For example, a gene panel containing one or more of SF3B1, TET2, DNMT3A and ASXL1 can be used. In a specific embodiment, a gene panel that includes the following 36 genes was used: ASXL1, ATM, BCOR, CBL, CEBPA, CSF3R, CUX1, DNMT3A, ETNK1, ETV6, EZH2, FLT3, GATA2, IDH1, IDH2, IKZF1, JAK2, KRAS, NF1, NPM1, NRAS, PHF6, PTEN, PTPN11, RUNX1, SETBP1, SF3B1, SRSF2, STAG2, STAT3, STK11, TET2, TP53, U2AF1, WT1, ZRSR2. The NGS assay can be performed using DNA bait capture methodology on the NextSeq® (Illumina®) platform. Following DNA extraction from leukocytes, a targeted, amplicon-based NGS method is used to detect mutations. […] The percentage of mutation reads will be reported and can be used to assess the size of the clonal population. VAF is the percentage of sequence reads observed matching a specific DNA variant divided by the overall coverage at that locus. Because NGS provides a near random sample, VAF is thus a surrogate measure of the proportion of DNA molecules in the original specimen carrying the variant.
VAF changes were assessed from blood taken pre- and every 12 weeks post-treatment in patients with greater than or equal to 5% variant allele at baseline and >1 post-baseline assessment. T-tests evaluated group comparison, Fisher's exact test evaluated association, and linear regression evaluated correlation. […] The patients achieving ≥8-weeks, ≥24-weeks, and >1-year TI in the imetelstat group were enriched with patients who had ≥50% reductions in SF3B1 and TET2 VAF compared with placebo (FIG. 10).
Blood samples were collected at baseline and during study visits approximately every 12 weeks. Following DNA extraction from leukocytes, a targeted, amplicon-based next generation sequencing was performed at Quest Diagnostics using DNA bait capture methodology on the NextSeq® (Illumina®) platform and a LeukoVantage® MDS Gene Panel covering 36 MDS-relevant genes. The lower limit of sensitivity is 5% mutated alleles in a mixed population; the percentage of mutation reads is reported and used to assess the size of the clonal population.

[5] = tested on: DNMT3A; test: Gene mutation analysis (NGS): DNMT3A VAF and clinical response; details: imetelstat group
Excerpt: as §1, §2, §3

[6] = SF3B1 VAF ≥50% reduction No (N=55)
[7] = SF3B1 VAF ≥50% reduction Yes (N=23)

With “Imetelstat: first-in-class telomerase inhibitor; synthetic lipid-conjugated 13-mer oligonucleotide N3′→P5′-thiophosphoramidate (TAGGGTTAGACAA; all [nps], 5' {Palm}, sugars by position and methylation of C not given here)” the “Pearson's r: maximum % reduction in TET2 VAF vs maximum change in hemoglobin” value ([1]; n=32) was −0.659, the “Pearson's r: maximum % reduction in TET2 VAF vs duration of TI” value ([1]; n=38) was −0.577 and the Median hemoglobin peak ([2]; 8-week TI responders) was 11.3 g/dL. The “Median hemoglobin increase from pretreatment to peak” value ([2]; 8-week TI responders, during TI period) was 3.55 g/dL and 3.6 g/dL, the “Major HI-E response, % difference vs placebo” value ([2]; HTB subjects) was 30.9% and the “Minor HI-E response, % difference vs placebo” value ([2]; HTB subjects) was 34.8%. The “Major HI-E response (16-week RBC-TI), patients” value ([2]; HTB subjects (97)) was 30 No. of patients, the “Minor HI-E response (50% RBC units reduction in 16 weeks), patients” value ([2]; HTB subjects (97)) was 43 No. of patients and the “HI-E response (16-week RBC-TI), % difference vs placebo” value ([2]; LTB subjects) was 11.1%. The “HI-E response (16-week RBC-TI), patients” value ([2]; LTB subjects (21)) was 7 No. of patients, the “HI-E per IWG 2006, patients” value ([2]; N=118) was 75 n and the “HI-E per IWG 2018, patients” value ([2]; N=118) was 50 n. For the same substance, the “Increase in hemoglobin ≥1.5 g/dL for ≥8 wk, patients” value ([2]; N=118) was 40 n, the “Transfusion reduction by 50%/16 weeks rate” value ([2]; N=118) was 43.2% and the “Transfusion reduction by 50%/16 weeks, patients” value ([2]; N=118) was 51 n. For the same substance, the “Transfusion reduction by ≥4 units/8 wk, patients” value ([2]; N=118) was 71 n, the “HI-E per IWG 2018 rate” value ([2]; N=118, listed as imetelstat) was 42% and 42.4% and the “Increase in hemoglobin ≥1.5 g/dL for ≥8 wk rate” value ([2]; N=118, listed as imetelstat) was 34%. For the same substance, the “HI-E IWG 2006, % difference vs placebo” value ([2]; in vivo) was 11.9%,, the “HI-E IWG 2018, % difference vs placebo” value ([2]; in vivo) was 29.0%, and the “Increase in hemoglobin ≥1.5 g/dL for ≥8 wk, % difference vs placebo” value ([2]; in vivo) was 23.9%. The “Transfusion reduction by ≥4 units/8 wk, % difference vs placebo” value ([2]; in vivo) was 10.2%,, the “Median increase in hemoglobin during the longest TI interval” value ([2]; ≥1-year TI responders) was 5.2 g/dL and 5.18 g/dL and the “HR, time to first sustained meaningful improvement in fatigue vs placebo” value [3] was 1.34. For the same substance, the “Median time to first sustained, meaningful improvement in fatigue” value [3] was 28.3 weeks, the “Patients with any episode of sustained, meaningful deterioration in fatigue” value ([3]; 118 patients) was 43.2% and the “Patients with sustained, meaningful improvement in fatigue” value ([3]; 118 patients) was 50.0%. The “Maximal reduction in SF3B1 VAF” value ([4]; 18 ≥1-year TI responders with mutation data) was −6% to −100%, the “1-Year RBC-TI Yes” value [4, 6] was 5.5% and the “8-Week RBC-TI Yes” value [4, 6] was 38.2%. The “24-Week RBC-TI Yes” value [4, 6] was 23.6%, the “1-Year RBC-TI Yes” value [4, 7] was 47.8% and the “8-Week RBC-TI Yes” value [4, 7] was 82.6%. For the same substance, the “24-Week RBC-TI Yes” value [4, 7] was 69.6%, the “Pearson's r: maximum % reduction in SF3B1 VAF vs maximum change in hemoglobin” value ([4]; imetelstat group, n=67) was −0.626 and the “Complete elimination of the SF3B1 VAF, patients” value ([4]; ≥1-year TI responders (of 18)) was 7 patients. The “≥50% SF3B1 VAF reduction” value ([4]; ≥1-year TI responders (of 18)) was 72.2%, the “≥50% SF3B1 VAF reduction, patients” value ([4]; ≥1-year TI responders (of 18)) was 13 patients and the “Pearson's r: maximum % reduction in DNMT3A VAF vs maximum change in hemoglobin” value ([5]; n=13) was −0.667. The “Pearson's r: maximum % reduction in DNMT3A VAF vs duration of TI” value ([5]; n=18) was −0.545.
